This is an account of results in patent US20190290656A1, “PT(IV) PRODRUGS” (YISSUM RESEARCH DEVELOPMENT COMPANY OF THE HEBREW …, priority 2015, published 2019).

One data set has as its system HCT-15 spheroids. As to the kind of experiment: 3D spheroid APH assay, HCT-15. The format is cell-based, human. The note with it: for IC50: HCT-15 spheroids, 72 h, APH test.
The subject of a further data set is PSN-1 spheroids. As to the kind of experiment: 3D spheroid APH assay, PSN-1. The format is cell-based, human. Conditions: for IC50: PSN-1 spheroids, 72 h, APH test.
For the next data set, the system named is 2008 cells. As to the kind of experiment: MTT cytotoxicity assay, 2008. The format is cell-based, human. The note with it: for IC50: 2008, 72 h, MTT. An outline of the steps: (§1)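 MTT viability read after 72 h compound exposure in human cancer cell lines (lung H157, colon HCT-15, cervical A431, ovarian 2008, pancreatic PSN1, melanoma A375). Triplicate cultures per treatment.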
For orientation: Tetrazolium assays rely on reduction of a dye to a coloured formazan, in cell work by metabolically active cells.

Data set [1] concerns Histone deacetylase (HDAC). As to the kind of experiment: Histone deacetylase assay in 2008 cells. The format is cell-based, human. The note with it: 24 h, IC50 concentrations. As for the experimental part: (§2) Histone deacetylase assay. Histone deacetylase activity was determined using Fluor-de-Lys® HDAC fluorometric activity assay kit (Enzo Life Sciences International, Inc., Plymount Meeting, Pa., U.S.A.). 2008 and PSN1 cells (5.10^4 seeded in 96-well microplates) were treated for 24 h with tested complexes, and then processed as reported by the manufacturer's instructions. Fluorescence was measured using a Fluoroskan Ascent FL (Labsystem, Finland) plate reader, with excitation at 360 nm and emission at 460 nm.
(§3) Thus, we measured both the levels of DNA platination and the ability of these pro-drugs to inhibit HDAC activity in cancer cells.

Another data set relates to BxPC3 spheroids. As to the kind of experiment: 3D spheroid APH assay, BxPC3. Conditions: 72 h, APH test. The format is cell-based, human.
Data set [2] in a line: octanol/water partition, shake-flask method. The format is physicochemical. On the procedure: To quantify the hydrophobicity of the platinum complexes, partition coefficients (log P) values for octanol/water partition were measured using the shake-flask method.
For a further data set, the system named is HCT-15 cells. Description: MTT cytotoxicity assay, HCT-15. The format is cell-based, human. An outline of the steps:
(§4)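 MTT viability read-out in HCT-15 and A375 human cancer cells after 72 h compound exposure; triplicate cultures per treatment.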

In the next data set the test system is PSN1 cells. Description: MTT cytotoxicity assay, PSN1. The format is cell-based, human. The note with it: for IC50: PSN1, 72 h, MTT. In outline:
as §1

A further data set deals with H157 cells. Description: MTT cytotoxicity assay, H157. The format is cell-based, human. Conditions: H157, 72 h. An outline of the steps:
as §1

Data set [3] has as its system human embryonic kidney HEK293 cells. Description: MTT cytotoxicity against non-tumor cells. The format is cell-based. Conditions: for IC50: HEK293 non-tumor cells, 72 h, MTT; for SI (selectivity index): ratio between average IC50 of non-tumor cells and IC50 of malignant cells. On the procedure:
MTT assay. […] Triplicate cultures were established for each treatment.
The cytotoxic activity of derivatives 3a and 3b was also evaluated against non-tumor cells, namely human embryonic kidney HEK293 cells (Table 7). Both compounds 3a and 3b were more cytotoxic than CDDP.

For the next data set, the system named is A431 cells. Description: MTT cytotoxicity assay, A431. The format is cell-based, human. The note with it: A431, 72 h. In outline:
as §1

The test system of the next data set is A375 cells. Description: MTT cytotoxicity assay, A375. The format is cell-based, human. An outline of the steps:
as §4

For another data set, the system named is nine cancer cell lines. Description: MTT cytotoxicity, over the nine cancer cell lines. The note with it: read-out: average IC50 values for the nine cancer cell lines; mean over nine cell lines, 72 h MTT.
Another data set concerns MCF-7 cells. Description: MTT cytotoxicity assay, MCF-7. The format is cell-based, human. Conditions: MCF-7, 72 h exposure, MTT; read-out: IC50 (median growth inhibitory concentration). On the procedure: Cisplatin (CDDP) and oxaliplatin (OXP) were dissolved just before the experiment in a 0.9% NaCl solution.
Human prostate adenocarcinoma (PC3) cells were obtained from European Collection of Cell Cultures (ECACC, Salisbury, UK). Human ovarian cancer cell lines A2780 and its cisplatin resistant variant, A2780cisR, were kindly provided by Prof.
Triplicate cultures were established for each treatment.

Data set [4] has as its system Histone deacetylase (HDAC). Description: Histone deacetylase assay in PSN-1 cells. The data set is classed as cell-based, human. Conditions: 24 h, IC50 concentrations. As for the experimental part: as §2, §3
In a further data set the test system is A498 cells. As to the kind of experiment: MTT cytotoxicity assay, A498. The format is cell-based, human. The note with it: A498, 72 h exposure, read-out: IC50 (median growth inhibitory concentration). In outline:
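Platinum(IV) complexes from fresh DMSO stocks, final 0.5% DMSO in medium; cisplatin and oxaliplatin dissolved fresh in 0.9% NaCl. A2780, cisplatin-resistant A2780cisR and A498 cells tested by MTT in triplicate cultures.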

A short description of data set [5]: Stability in cell culture medium DMEM (NMR). Conditions: 37° C. The format is physicochemical. On the procedure:
A solution 2.0 mM of 3a (Scheme 4) in DMEM was kept at 37° C. for 3 days. NMR measurements were performed every day.
A phosphate buffer solution is an oversimplified model for medium of biological relevance in order to test the stability of a drug candidate. […] Thus, as following step, we evaluated the stability of 3a in cell culture medium DMEM, where the biomolecules present can affect the overall degradation process. A 2.0 mM solution of 3a in DMEM monitored by ^1H NMR spectroscopy for 3 days at 37° C. (FIG. 8).

The mark [6] stands for this setting: HCT-15, 72 h, MTT (Table 5), read-out: IC50 (μM) ± S.D.
Setting [7] is: A375, 72 h, MTT (Table 5), read-out: IC50 (μM) ± S.D.

Values joined by “and” are separate entries in the source; they are usually repeats but may differ in a detail not shown here. Identical values can stand only once. Like-named read-outs stand apart in the source and are kept apart here.

One may read the Log P as the decadic logarithm of the partition coefficient of the neutral form, usually between octanol and water. A higher Log P goes with higher lipophilicity. Take `[NH2][Pt]([NH2])([Cl])[Cl]` [CDDP, Cisplatin, reference compound]: the IC50 in the data set with HCT-15 spheroids was found to be 89.2 ± 3.44 µM; in the data set on PSN-1 spheroids it was 59.9 ± 12.9 µM; with 2008 cells, 2.22 µM; in the data set on BxPC3 spheroids it was 69.6 ± 8.21 µM; with HCT-15 cells (setting [6]) it was 15.3 ± 2.63 µM; in the data set on HCT-15 cells (HCT-15, 72 h exposure, MTT (Table 1), read-out: IC50 (median growth inhibitory concentration)) it was 11.3 ± 1.06 µM. In addition, the IC50 in the data set with PSN1 cells was 18.2 µM; in the data set on H157 cells it was 3.28 ± 2.38 µM; in data set [3] it was 19.6 ± 2.95 µM; in the data set with A431 cells it was 1.65 ± 0.51 µM; with A375 cells (setting [7]) it was 3.11 ± 0.98 µM; with A375 cells (A375, 72 h exposure, MTT (Table 1), read-out: IC50 (median growth inhibitory concentration)), 4.03 ± 0.95 µM. Moreover, the IC50 in the data set on nine cancer cell lines is 9.18 µM and 9.9 µM; in the data set with MCF-7 cells, 17.4 ± 0.2 µM; in the data set on A498 cells, 17.5 ± 1.21 µM. For the same compound, the “fold more potent than 3b” value with 2008 cells (2008 cells) is on record as ~3 fold. The HDAC activity hampered entry in data set [1] and in [4] was “not effective in modifying HDAC activity” each time. Also, in data set [2], the “Log P” value is on record as −2.25 ± 0.04. Also, the “SI (selectivity index)” value in data set [3] was found to be 2.7.
On to “c,c,t,t,c,c-[(DACH)(56Phen)(PhBu)Pt(μ-OOC—(CH2)2—CONH(CH2)3COO)—Pt(DCA)(NH3)2 (Cl2)](TFA)2 [Compound 3a]”, for which the figures for the “Pt(IV)-phen moiety reduced” value in [5] (after 1 day), in data set [5] (after 2 days) and in data set [5] (after 3 days) were “about 22%”, 39% and 58%, respectively. Further, the “times more effective than CDDP” value in the data set with HCT-15 spheroids (HCT-15 3D model) was “about 2 fold”; with PSN1 cells (PSN1 cells), “up to 200 fold”. Moreover, the IC50 in the data set on HCT-15 spheroids was 40 ± 4.58 µM; with PSN-1 spheroids, 10.3 ± 4.85 µM; with 2008 cells, 0.79 µM; in the data set with BxPC3 spheroids, 59.1 ± 3.84 µM; in the data set on HCT-15 cells (setting [6]), 0.36 ± 0.08 µM; with PSN1 cells, 0.09 µM. Further, the IC50 amounted to 0.95 ± 0.08 µM in the data set with H157 cells, 2.25 ± 0.29 µM in data set [3], 0.2 ± 0.09 µM in the data set on A431 cells and 0.08 ± 0.01 µM in the data set on A375 cells (setting [7]). Further, the “factor by which activity exceeded that of the reference drugs” value in the data set with PSN-1 spheroids (PSN-1 3D model) is “about 6 fold”. In addition, the HDAC activity hampered entry was “about 8%” in data set [1] and ~10% in [4]. The “times more effective than OXP” value in the data set with PSN1 cells (PSN1 cells) is listed as ≤ 92 fold. For the same compound, in [3], the “times SI better than that of cisplatin” value is given as “about 2 fold”. In data set [3], the “SI (selectivity index)” value was 5.5.
